We go through two compounds from patent US20220110953A1, “METHODS AND COMPOSITIONS FOR TREATING HUMAN PAPILLOMAVIRUS (HPV)-INDUCED CANCERS” (The Board of Regents of the University of Oklahoma, priority 2020, published 2022).

Series [1] relates to HPV 16+ and HPV 18+ human cervical cancer cell lines. As to the kind of experiment: Auranofin cell growth in human cervical cancer cell lines. It counts as cell-based. The following applies: FIG. 6.
Series [2] relates to SiHa cervical cancer xenografts (HPV 16+). As to the kind of experiment: SiHa tumor xenograft model. The following applies: 10 mg/kg/day i.p., vs placebo. It counts as in vivo, mice. The method, then:
(§1) The animal study was conducted in accordance with a standard animal protocol approved by the University of Oklahoma Health Sciences Center Institutional Animal Care and Use Committee (IACUC Protocol #19-009-CHI). […] Auranofin (10 mg/kg/day) or placebo (2% DMSO, 10% ethanol and 5% polyethylene glycol 400) were given daily for 16 days, through intraperitoneal injection. Mice were weighed once per week and animal health was monitored daily. At the end of the study, all mice were euthanized by CO2 inhalation followed by cardiac puncture and total blood collection. Tumors were collected at necropsy and a portion of each tumor from each animal was fixed in paraformaldehyde and embedded in paraffin, while another portion was snap-frozen in liquid nitrogen.
(§2) The tumor volume and body weight data were determined to be not normally distributed, and the final tumor weight data was determined to be normally distributed using the Shapiro-Wilk test. Tumor volume and body weight were compared between treatment groups using the Wilcoxon matched-pairs signed rank test. A two-way ANOVA with multiple comparisons was used to evaluate the interaction between time and treatment. An unpaired t-test was used to compare the final tumor weights between the two treatment groups. The p values <0.05 were considered statistically significant. Statistical analysis was performed using Prism 8.0 (GraphPad).

A short description of series [3]: Body weight and gross toxicity in the SiHa xenograft study. The following applies: 10 mg/kg/day i.p., 16 days. Format: in vivo, mice. The method, then: as §1, §2
Series [4] deals with HeLa (HPV 18+) cells. As to the kind of experiment: Effect of IMD 0354 on growth of HeLa cells (cell count after 48h). It counts as cell-based, human. The method, then: (§3) To examine the effect of IMD 0354 on the growth of HaCat (HPV^−), HeLa (HPV 18^+), CasKi and SiHa (both HPV 16^+), the cells were plated out and allowed to adhere overnight. Next day their culture medium was replaced and different concentrations of IMD 0354 (final concentrations 250, 500, 750, 1000, 1250 nM, using DMSO to equalize input volumes and as negative control) were added to the plates. Cells were counted 48h later.
(§4) IKKβ is a serine/threonine kinase that is highly conserved between flies and humans. It regulates the innate immune pathway by activating NF-κB, which in turn activates the expression of antimicrobial peptides to fight against pathogens. To determine whether IKKβ also has a functional link to E6+UBE3A in human cells, we assessed the effect of the commercial IKKβ inhibitor IMD 0354 on the growth of HaCat (HPV^−), HeLa (HPV 18^+), CasKi (HPV 16^+), and SiHa (HPV 16^+) cells. Different concentrations of the inhibitor were tested ranging from 250, 500, 750, 1000, to 1250 nM.

The test system of series [5] is HaCat (HPV−) cells. As to the kind of experiment: Effect of IMD 0354 on growth of HaCat cells (cell count after 48h). Format: cell-based, human. The following applies: 250-1250 nM. As to the method: as §3, §4
In series [6] the test system is SiHa (HPV 16+) cells. As to the kind of experiment: Effect of IMD 0354 on growth of SiHa cells (cell count after 48h). It counts as cell-based, human. The following applies: 250-1250 nM. As to the method:
as §3, §4

The test system of series [7] is HPV 18 E6. As to the kind of experiment: Western blot for phosphorylated E6 in HeLa cells treated with IKKβ inhibitor. Format: cell-based, human. As to the method: HPV-18-positive HeLa cells were seeded on 6 cm dishes and allowed to attach overnight. Fresh medium was then added, containing either 0, 100 nM or 500 nM […] inhibitor (in DMSO). After 5 hours the cells were harvested in 2×SDS-PAGE gel loading buffer, run on SDS-PAGE, and analyzed by Western Blot. The membrane was probed with antibody specific for phosphorylated E6, as described previously (Boon and Banks 2012, DOI: 10.1128/JVI.02074-12). Following incubation with primary antibody, the appropriate horseradish peroxidase (HRP)-conjugated secondary antibodies (Dako) were used, followed by enhanced chemiluminescence (ECL) detection according to the manufacturer's instructions.
To assess whether phosphorylation-mediated regulation of E6 plays a role in suppression of Magi degradation, we treated cells expressing HPV 18 E6 with the IKKβ inhibitor […] (at 100 and 500 nM) and compared with untreated cells for E6 phosphorylation. Western blot analysis was performed using an antibody to detect phosphorylated E6.

Take `CC(=O)OC[C@H]1O[C@@H]([S-])[C@H](OC(C)=O)[C@@H](OC(C)=O)[C@@H]1OC(C)=O.CCP(CC)CC.[Au+]` [Auranofin]: the “activity against cervical cancer cell lines (cell growth)” value in series [1] is given as “active”. Further, the “tumor growth (tumor volume over time)” value in series [2] (16 days, Wilcoxon p=0.0011) is recorded as “significant reduction in tumor growth”. Moreover, in series [2] (two-way ANOVA multiple comparisons p=0.0016), the “tumor volume after 16 days of treatment” value was “significant reduction in tumor volume”. In addition, the “gross toxicity to the animals” value in series [3] is recorded as “did not cause gross toxicity”. Further, the body weights entry in series [3] (vs placebo, any time point, p>0.05) is “no significant differences”.
In the case of `O=C(Nc1cc(C(F)(F)F)cc(C(F)(F)F)c1)c1cc(Cl)ccc1O` [IMD 0354], the “number of surviving cells relative to the initial number of cells” value in series [4] (250 nM) came to 40%; in series [4] (1250 nM), 10%. In addition, the “effect on cell growth” value in series [4] (250-1250 nM) is recorded as “most strongly affected”; in series [5], “minor effect”; in series [6], “significant”. The “E6 phosphorylation (Western blot)” value in series [7] (HeLa cell extracts, 100 nM, 5 hours) is “lack of E6 phosphorylation”; in series [7] (HeLa cell extracts, 500 nM, 5 hours), “results in phosphorylation of E6”; in series [7] (cells expressing HPV 18 E6, at 100 and 500 nM, compared with untreated cells), “extensive phosphorylation of E6”.
